Values of other authors as cited in US20170119788A1, “METHODS AND COMPOSITIONS FOR DERMATOLOGICAL USE COMPRISING FLUTICASONE AND MOMETASONE AND BIOPOLYMERS” (APEX LABORATORIES PRIVATE LIMITED, priority 2015, published 2017).
Where two headings read alike, the source gives them in different places.

Columns and labels:
[1] = target: T1, human glucocorticoid receptors (Homo sapiens, UniProt P04150); settings: in vitro, result in words
T1 sequence (P04150 1-777): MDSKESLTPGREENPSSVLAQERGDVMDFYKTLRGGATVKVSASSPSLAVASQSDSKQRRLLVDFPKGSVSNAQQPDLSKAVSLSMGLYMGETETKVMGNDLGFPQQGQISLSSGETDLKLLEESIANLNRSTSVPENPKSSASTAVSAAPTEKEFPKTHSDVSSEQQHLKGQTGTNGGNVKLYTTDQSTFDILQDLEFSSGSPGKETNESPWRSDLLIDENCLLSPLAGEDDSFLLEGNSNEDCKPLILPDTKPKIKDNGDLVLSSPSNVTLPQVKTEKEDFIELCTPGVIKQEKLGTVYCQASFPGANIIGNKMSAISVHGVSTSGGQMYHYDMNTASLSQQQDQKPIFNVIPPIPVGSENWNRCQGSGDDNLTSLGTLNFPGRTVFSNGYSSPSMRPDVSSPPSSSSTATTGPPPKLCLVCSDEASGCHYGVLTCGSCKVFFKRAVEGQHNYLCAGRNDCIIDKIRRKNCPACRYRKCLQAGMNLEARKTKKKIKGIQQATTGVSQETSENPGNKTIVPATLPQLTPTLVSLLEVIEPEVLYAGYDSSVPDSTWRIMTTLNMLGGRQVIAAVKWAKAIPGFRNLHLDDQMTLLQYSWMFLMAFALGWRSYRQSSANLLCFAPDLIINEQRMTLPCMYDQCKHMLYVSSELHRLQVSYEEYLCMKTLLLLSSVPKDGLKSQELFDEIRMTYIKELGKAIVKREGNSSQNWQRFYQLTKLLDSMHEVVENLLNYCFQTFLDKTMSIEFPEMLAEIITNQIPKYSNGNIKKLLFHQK

erythrocytes = settings: result in words
human transcortin = target: T2, human transcortin (Homo sapiens, UniProt P08185); settings: result in words
T2 sequence (P08185 23-405): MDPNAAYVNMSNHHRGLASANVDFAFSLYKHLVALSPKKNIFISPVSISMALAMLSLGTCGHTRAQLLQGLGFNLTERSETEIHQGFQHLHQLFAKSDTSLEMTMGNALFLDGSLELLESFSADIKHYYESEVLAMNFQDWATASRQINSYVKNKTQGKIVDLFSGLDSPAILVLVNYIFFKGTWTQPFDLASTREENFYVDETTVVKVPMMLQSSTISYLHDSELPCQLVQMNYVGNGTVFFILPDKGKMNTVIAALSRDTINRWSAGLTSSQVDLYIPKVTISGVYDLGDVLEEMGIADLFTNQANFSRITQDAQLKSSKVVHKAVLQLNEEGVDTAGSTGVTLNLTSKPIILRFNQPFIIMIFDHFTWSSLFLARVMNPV

human plasma proteins = settings: average
[2] = not given; remark: listed apart in the source
[3] = not given; remark: listed apart in the source
[4] = not given; remark: listed apart in the source

SMILES: CCC(=O)O[C@]1(C(=O)SCF)[C@H](C)C[C@H]2[C@@H]3C[C@H](F)C4=CC(=O)C=C[C@]4(C)[C@@]3(F)[C@@H](O)C[C@@]21C [Fluticasone propionate, S-(fluoromethyl)6α,9-difluoro-11β-17-dihydroxy-16α-methyl-3-oxoandrosta-1,4-diene-17β-carbothioate, 17-propionate]
- affinity and agonist activity at human glucocorticoid receptors [1]: strong affinity and agonist activity
- apparent volume of distribution, average: 4.2 L/kg
- terminal half-life, average: 7.2 h
- binding to erythrocytes (erythrocytes): weakly and reversibly bound
- binding to human transcortin (human transcortin): not significantly bound
- percentage bound to human plasma proteins (human plasma proteins): 91%
- solubility in dimethyl sulfoxide and dimethylformamide ([2]; dimethyl sulfoxide and dimethylformamide): freely soluble
- solubility in methanol and 95% ethanol ([2]; methanol and 95% ethanol): slightly soluble
- solubility in water ([2]; water): practically insoluble

SMILES: C[C@@H]1C[C@H]2[C@@H]3CCC4=CC(=O)C=C[C@]4(C)[C@@]3(Cl)[C@@H](O)C[C@]2(C)[C@@]1(OC(=O)c1ccco1)C(=O)CCl [Mometasone Furoate, 9α, 21-dichloro-11β, 17-dihydroxy-16α-methylpregna-1,4-diene-3, 20-dione 17-(2-Furoate)]
- solubility in ethyl alcohol ([3]; ethyl alcohol): moderately soluble
- solubility in octanol ([3]; octanol): slightly soluble
- solubility in water ([3]; water): practically insoluble
- bioavailability of an inhaled dose ([4]; compared with IV administration): less than 1%
- excretion in the feces ([4]; up to 7 days): 74%
- excretion in the urine ([4]; up to 7 days): 8%
